Usually IC50 stands for the concentration that inhibits the measured activity by half. Usually half-life stands for the time needed for the level to fall by half in the phase considered. Low readings indicate rapid decline, high ones slow decline. One may read the inhibition as the share of the control response that was lost under treatment.

Data set [1] addresses USP1/UAF1 (Homo sapiens, UniProt O94782). The data set is described as follows: USP1/UAF 1 assay (ubiquitin-rhodamine110 fluorometric deubiquitinase assay). It is filed as biochemical. The following applies: for IC50: 1 nM USP1/UAF1, 150 nM Ub-Rho, read-out: Biochemical assay IC50; for inhibition at 1 µM: read-out: Biochemical assay % inhibition @1 μM. As to the method:
Test-1: USP1/UAF 1 Assay:
Deubiquitinase activity of USP1/UAF1 was monitored in a fluorometric assay using ubiquitin-rhodamine110 as substrate. Briefly, enzymatic reactions were conducted in an assay buffer composed of 50 mM HEPES, pH 7.8, 0.5 mM EDTA, 100 mM NaCl, 1 mM TCEP, 0.1 mg/mL BSA, and 0.01% Tween-20 that contained 1 nM USP1/UAF1. Compounds were tested at desired concentrations. The plates were incubated for 15 min to attain equilibrium, and then the enzymatic reaction was initiated by dispensing 150 nM Ub-Rho solution. Fluorescence measurement was performed in a high throughput CCD imager, where kinetic measurements of rhodamine fluorescence were acquired using a 480 nm excitation/540 nm emission filter set. The change in fluorescence intensity over a 5-minute reaction period (typically associated with less than 10% substrate conversion) was normalized against no-inhibitor and no-enzyme controls and the resulting percent inhibition data were fitted to a sigmoidal dose response using a four-parameter Hill equation. Data was be analysed and percent inhibition and/or IC50 for each test compound is calculated accordingly.

A short description of data set [2]: Metabolic stability, human liver microsomes. It counts as in vitro ADME. The note with it: pH 7.4, 1 μM test item, 1 mM NADPH, 60 minutes. As to the method: (§1) Test-8: Metabolic Stability
(§2) Metabolic stability studies were conducted using mouse, rat, and human liver microsomes. The protocol for the studies with mouse and human liver microsomes (Gibco-Thermo) is provided below.
(§3) In brief, 0.25 mg protein was preincubated in phosphate buffer (pH˜7.4) for 5 min at 37° C. and then added with 1 μM test item followed by addition of 1 mM NADPH (cof actor) and incubated further over a period 60 minutes in duplicate. The reaction mixture was terminated with acetonitrile containing an internal standard and centrifuged further to analyse the test item remaining in the supernatant by LC-MS/MS at different intervals. The percent parent compound remaining was calculated in comparison with similar samples terminated at 0 minutes.

Data set [3] has as its system MD-MBA-436. The data set is described as follows: Cell viability assay (CTG assay). The following applies: 7th day; for inhibition at 10 µM / IC50: Homo sapiens. It counts as cell-based, human. As to the method: Test 5: Cell Viability Assay (CTG Assay):
Growth inhibition assays was carried out using […] supplemented media. Cells were seeded at a desired concentration of 1000-6,000 cells/well in a well plate with desired number of wells. Test compounds at a desired concentration range were added after 24 hours. Growth was assessed using the Cell Titer-Glo (CTG, Cell Signaling) for measuring reduction at 7th day after the addition of test compound chemiluminescence values were read by a plate reader. Data was be analysed and percent inhibition and/or IC50 for each test compound is calculated accordingly.

Data set [4] is described as follows: Metabolic stability, mouse liver microsomes. The note with it: pH 7.4, 1 μM test item, 1 mM NADPH, 60 minutes. It counts as in vitro ADME. As to the method:
as §1, §2, §3
(Liver microsomes are vesicles of endoplasmic reticulum, rich in cytochrome P450 enzymes.)

Each structure is given as a SMILES string. Some results are limits rather than exact numbers.

Sequence of USP1/UAF1 (O94782 whole entry): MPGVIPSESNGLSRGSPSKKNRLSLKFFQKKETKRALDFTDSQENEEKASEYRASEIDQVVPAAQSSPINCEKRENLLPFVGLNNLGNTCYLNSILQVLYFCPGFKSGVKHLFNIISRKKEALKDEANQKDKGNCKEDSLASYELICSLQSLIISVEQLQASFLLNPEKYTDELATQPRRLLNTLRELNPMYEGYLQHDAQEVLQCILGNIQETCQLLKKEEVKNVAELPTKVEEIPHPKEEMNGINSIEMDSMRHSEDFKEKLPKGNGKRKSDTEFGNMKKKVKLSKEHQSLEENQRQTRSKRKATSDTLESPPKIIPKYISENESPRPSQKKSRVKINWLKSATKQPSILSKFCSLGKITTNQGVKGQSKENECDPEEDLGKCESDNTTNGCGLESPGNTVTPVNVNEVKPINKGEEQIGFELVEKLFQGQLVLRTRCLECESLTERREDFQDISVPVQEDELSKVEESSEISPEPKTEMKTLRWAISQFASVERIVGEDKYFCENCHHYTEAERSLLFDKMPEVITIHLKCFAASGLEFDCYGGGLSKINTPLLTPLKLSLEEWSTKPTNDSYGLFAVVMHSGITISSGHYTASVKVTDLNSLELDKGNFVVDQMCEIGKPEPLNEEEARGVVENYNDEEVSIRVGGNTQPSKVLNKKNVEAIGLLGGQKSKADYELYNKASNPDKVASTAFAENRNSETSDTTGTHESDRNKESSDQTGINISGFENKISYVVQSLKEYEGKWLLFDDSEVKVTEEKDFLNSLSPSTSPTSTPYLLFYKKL
Sequence of USP1/UAF1 (Q8TAF3 whole entry partner): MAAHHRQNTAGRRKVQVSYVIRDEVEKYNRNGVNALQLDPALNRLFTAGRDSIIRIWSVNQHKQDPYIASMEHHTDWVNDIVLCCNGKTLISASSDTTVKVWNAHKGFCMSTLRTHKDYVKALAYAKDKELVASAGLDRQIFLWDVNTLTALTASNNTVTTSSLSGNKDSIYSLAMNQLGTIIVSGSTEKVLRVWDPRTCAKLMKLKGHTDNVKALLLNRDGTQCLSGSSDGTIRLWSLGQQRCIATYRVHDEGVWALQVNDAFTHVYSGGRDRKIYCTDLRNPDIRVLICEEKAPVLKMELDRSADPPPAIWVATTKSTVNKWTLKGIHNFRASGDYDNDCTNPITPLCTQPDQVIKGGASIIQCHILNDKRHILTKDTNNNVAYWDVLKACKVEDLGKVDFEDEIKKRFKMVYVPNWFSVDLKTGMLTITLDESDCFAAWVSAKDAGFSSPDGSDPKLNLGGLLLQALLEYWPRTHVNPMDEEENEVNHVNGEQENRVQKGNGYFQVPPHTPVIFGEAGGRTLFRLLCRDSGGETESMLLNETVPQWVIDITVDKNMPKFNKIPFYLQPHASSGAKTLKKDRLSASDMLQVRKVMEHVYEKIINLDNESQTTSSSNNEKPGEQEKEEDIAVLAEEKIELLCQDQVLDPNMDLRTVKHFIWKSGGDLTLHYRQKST

`COc1ncnc(C2CC2)c1-c1nc(NCc2ccc(-c3nc(C(F)(F)F)cn3C)cc2)c2c(c1C#N)CCC2` [Example 2, 3-(4-cyclopropyl-6-methoxypyrimidin-5-yl)-1-((4-(1-methyl-4-(trifluoromethyl)-1H-imidazol-2-yl)benzyl)amino)-6,7-dihydro-5H-cyclopenta[c]pyridine-4-carbonitrile]: the half-inhibitory concentration (IC50) in data set [1] was in the range of 0.1 to 1 µM. In data set [2], this compound registered a half-life at 1 μM of 20.4 min. In data set [3] (@10 μM), this compound had an inhibition at 10 µM of 50 to 75%.

On to `CC(C)c1ccccc1-c1nc2c(c(NCc3ccc(-c4nc(C(F)(F)F)cn4C)cc3)n1)CCC2` [Example 3, 2-(2-isopropylphenyl)-N-(4-(1-methyl-4-(trifluoromethyl)-1H-imidazol-2-yl)benzyl)-6,7-dihydro-5H-cyclopenta[d]pyrimidin-4-amine], for which the IC50 in data set [1] and in data set [3] was under 0.05 µM throughout. Also, the half-life at 1 μM was 14 min in data set [2] and 14.4 min in data set [4].

With `CC(C)c1ccccc1-c1nc(NCc2ccc(-c3nc(C(F)(F)F)cn3C)cc2)c2c(c1C#N)CCC2` [Example 4, 3-(2-isopropylphenyl)-1-((4-(1-methyl-4-(trifluoromethyl)-1H-imidazol-2-yl)benzyl)amino)-6,7-dihydro-5H-cyclopenta[c]pyridine-4-carbonitrile], the half-inhibitory concentration (IC50) was 0.05 to 0.1 µM in data set [1] and at least 1 µM in data set [3]. Further, the half-life at 1 μM in data set [2] stood at 7.13 min; in data set [4] it was 7.71 min.

For `CC(C)c1ccccc1-c1nc(NCc2ccc(-c3nc(C(F)(F)F)cn3C)cc2)c2cccn2n1` [Example 5, 2-(2-isopropylphenyl)-N-(4-(1-methyl-4-(trifluoromethyl)-1H-imidazol-2-yl)benzyl)pyrrolo[2,1-f][1,2,4]triazin-4-amine], the IC50 in data set [1] was under 0.05 µM; in data set [3], at least 1 µM.

Take `CC(C)c1ccccc1-c1nc2c(c(NCc3ccc(-c4nc(C(F)(F)F)cn4C(C)C)cc3)n1)CCC2` [Example 9, N-(4-(1-isopropyl-4-(trifluoromethyl)-1H-imidazol-2-yl)benzyl)-2-(2-isopropylphenyl)-6,7-dihydro-5H-cyclopenta[d]pyrimidin-4-amine]: in data set [1], the IC50 is under 0.05 µM. Besides, the half-life at 1 μM in data set [2] turned out to be 10.5 min.

`CC(C)n1cc(C(F)(F)F)nc1-c1ccc(CNc2nc(-c3c(OC(F)F)ncnc3C3CC3)nc3c2CCC3)cc1` [Example 11, 2-(4-cyclopropyl-6-(difluoromethoxy)pyrimidin-5-yl)-N-(4-(1-isopropyl-4-(trifluoromethyl)-1H-imidazol-2-yl)benzyl)-6,7-dihydro-5H-cyclopenta[d]pyrimidin-4-amine]: the IC50 in data set [1] was under 0.05 µM. In addition, in data set [3] (@10 μM), the “MD-MBA-436 % inhibition@10 μM” value was “A#”. In data set [4], this compound returned a half-life at 1 μM of 45.5 min.

With `CC(C)c1ccccc1-c1nc2c(c(OCc3ccc(-c4nc(C(F)(F)F)cn4C(C)C)cc3)n1)CCC2` [Example 13, 4-((4-(1-isopropyl-4-(trifluoromethyl)-1H-imidazol-2-yl)benzyl)oxy)-2-(2-isopropylphenyl)-6,7-dihydro-5H-cyclopenta[d]pyrimidine], in data set [1], the inhibition at 1 µM was in the range of 25 to 50%. Also, the half-life at 1 μM in data set [4] was 9.76 min.

For the compound `CC(C)c1ccccc1-c1nc2c(c(N(Cc3ccc(-c4nc(C(F)(F)F)cn4C(C)C)cc3)C(=O)N(C)C)n1)CCC2` [Example 14, 1-(4-(1-isopropyl-4-(trifluoromethyl)-1H-imidazol-2-yl)benzyl)-1-(2-(2-isopropylphenyl)-6,7-dihydro-5H-cyclopenta[d]pyrimidin-4-yl)-3,3-dimethylurea], the inhibition at 1 µM in data set [1] is 25 to 50%. Further, in data set [2], the half-life at 1 μM was 3.21 min.

With `COc1ncnc(C2CC2)c1-c1nc(NCc2ccc(-c3nc(C(F)(F)F)cn3C)cc2)c2ncn(C3CCCCO3)c2n1` (centres unmarked) [Example 19, 2-(4-cyclopropyl-6-methoxypyrimidin-5-yl)-N-(4-(1-methyl-4-(trifluoromethyl)-1H-imidazol-2-yl)benzyl)-9-(tetrahydro-2H-pyran-2-yl)-9H-purin-6-amine], the inhibition at 1 µM in data set [1] fell in the range of 50 to 75%. In data set [3] (@10 μM), this compound yielded an inhibition at 10 µM of 75 to 100%.

For the compound `COc1ncnc(C2CC2)c1-c1nc2c(c(NCc3ccc(-c4nc(C(F)(F)F)cn4C)cc3)c1C#N)CCC2` [Example 21, 2-(4-cyclopropyl-6-methoxypyrimidin-5-yl)-4-((4-(1-methyl-4-(trifluoromethyl)-1H-imidazol-2-yl)benzyl)amino)-6,7-dihydro-5H-cyclopenta[b]pyridine-3-carbonitriles], the 50% inhibitory concentration (IC50) in data set [1] is 0.1 to 1 µM. The same compound returned a half-life at 1 μM in data set [2] of 52.7 min. The compound also showed an inhibition at 10 µM in data set [3] (@10 μM) of 50 to 75%.

For the compound `COc1ncnc(C2CC2)c1-c1nc(NCc2ccc(-c3nc(C(F)(F)F)cn3C(C)C)cc2)c2cccn2n1` [Example 22, 2-(4-cyclopropyl-6-methoxypyrimidin-5-yl)-N-(4-(1-isopropyl-4-(trifluoromethyl)-1H-imidazol-2-yl)benzyl)pyrrolo[2,1-f][1,2,4]triazin-4-amine], the half-inhibitory concentration (IC50) was under 0.05 µM in data set [1] and 0.05 to 0.1 µM in data set [3].

As to `COc1ncnc(C2CC2)c1-c1nc2c(c(OCc3ccc(-c4nc(C(F)(F)F)cn4C)cc3)n1)CCC2` [Example 24, 2-(4-cyclopropyl-6-methoxypyrimidin-5-yl)-4-((4-(1-methyl-4-(trifluoromethyl)-1H-imidazol-2-yl)benzyl)oxy)-6,7-dihydro-5H-cyclopenta[d]pyrimidine], the half-life at 1 μM in data set [2] was 227 min; in data set [4] it was 22.6 min. In data set [3] (@10 μM), this compound yielded an inhibition at 10 µM of 75 to 100%.

Turning to `COc1ncnc(C2CC2)c1-c1nc(OCc2ccc(-c3nc(C(F)(F)F)cn3C)cc2)c2[nH]cnc2n1` [Example 26, 2-(4-cyclopropyl-6-methoxypyrimidin-5-yl)-6-((4-(1-methyl-4-(trifluoromethyl)-1H-imidazol-2-yl)benzyl)oxy)-7H-purine], the inhibition at 10 µM in data set [1] (read-out: Biochemical assay % inhibition @10 μM) was over 75%. The figures for the half-life at 1 μM in data set [2] and in data set [4] were 683 min and 284 min, respectively.

For `COc1cccc(F)c1-c1nc(OCc2ccc(-c3nc(C(F)(F)F)cn3C)cc2)c2ncn(C3CCCCO3)c2n1` (centres unmarked) [Example 27, 2-(2-fluoro-6-methoxyphenyl)-6-((4-(1-methyl-4-(trifluoromethyl)-1H-imidazol-2-yl)benzyl)oxy)-9-(tetrahydro-2H-pyran-2-yl)-9H-purine], the half-life at 1 μM in data set [4] was 122 min.

For the compound `Cn1cc(C(F)(F)F)nc1-c1ccc(CNc2nc(-c3cccc(C(N)=O)c3)nc3c2CCC3)cc1` [Example 72, 3-(4-((4-(1-methyl-4-(trifluoromethyl)-1H-imidazol-2-yl)benzyl)amino)-6,7-dihydro-5H-cyclopenta[d]pyrimidin-2-yl)benzamide], the inhibition at 1 µM in data set [1] lay within 50 to 75%.

With `Cn1cc(C(F)(F)F)nc1-c1ccc(CNc2nc(-c3cc(Cl)cc(Cl)c3)nc3c2CCC3)cc1` [Example 73, 2-(3,5-dichlorophenyl)-N-(4-(1-methyl-4-(trifluoromethyl)-1H-imidazol-2-yl)benzyl)-6,7-dihydro-5H-cyclopenta[d]pyrimidin-4-amine], the inhibition at 1 µM in data set [1] fell in the range of 50 to 75%.

Regarding `Cn1cc(C(F)(F)F)nc1-c1ccc(CNc2nc(-c3cc(F)cc(F)c3F)nc3c2CCC3)cc1` [Example 74, N-(4-(1-methyl-4-(trifluoromethyl)-1H-imidazol-2-yl)benzyl)-2-(2,3,5-trifluorophenyl)-6,7-dihydro-5H-cyclopenta[d]pyrimidin-4-amine], the inhibition at 1 µM in data set [1] lay in the range of 50 to 75%.

Take `Cc1cnc(-c2ccccc2C(C)C)nc1NCc1ccc(-n2ccnn2)cc1` [ML323, reference compound]: the half-life at 1 μM in data set [2] turned out to be 30.3 min; in data set [4], 7.58 min.
